Source: PubChem BioAssay (NCI)
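A five-concentration, 48-hour dose response in 96-well plates underlies each endpoint, interpolated linearly between surrounding concentrations. At the GI50, growth is halved. TGI denotes the concentration required for complete inhibition of growth.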

Tests used:
Assay in all cases: NCI anticancer screen, dose series, 48 h
HOP-62 NSCLC = system: HOP-62 NSCLC
SNB-19 CNS = system: SNB-19 CNS
MALME-3M melanoma = system: MALME-3M melanoma
MDA-MB-231 breast = system: MDA-MB-231 breast
A498 renal = system: A498 renal
HCT-116 colon = system: HCT-116 colon
HS 578T breast = system: HS 578T breast
TK-10 renal = system: TK-10 renal
OVCAR-3 ovarian = system: OVCAR-3 ovarian
T-47D breast = system: T-47D breast
RXF 393 renal = system: RXF 393 renal
SK-MEL-28 melanoma = system: SK-MEL-28 melanoma
HT29 colon = system: HT29 colon
RPMI-8226 leukemia = system: RPMI-8226 leukemia
SW-620 colon = system: SW-620 colon
KM12 colon = system: KM12 colon
UO-31 renal = system: UO-31 renal
M14 melanoma = system: M14 melanoma
OVCAR-4 ovarian = system: OVCAR-4 ovarian
MDA-MB-435 = system: MDA-MB-435
SNB-75 CNS = system: SNB-75 CNS
HL-60(TB) leukemia = system: HL-60(TB) leukemia
SK-MEL-2 melanoma = system: SK-MEL-2 melanoma
BT-549 breast = system: BT-549 breast
DU-145 prostate = system: DU-145 prostate
SK-MEL-5 melanoma = system: SK-MEL-5 melanoma
HCT-15 colon = system: HCT-15 colon
NCI/ADR-RES ovarian = system: NCI/ADR-RES ovarian
LOX IMVI melanoma = system: LOX IMVI melanoma
K-562 leukemia = system: K-562 leukemia
U251 CNS = system: U251 CNS
HOP-92 NSCLC = system: HOP-92 NSCLC
SF-268 CNS = system: SF-268 CNS
A549 NSCLC = system: A549 NSCLC
NCI-H522 lung = system: NCI-H522 lung
786-0 renal = system: 786-0 renal
COLO 205 colon = system: COLO 205 colon
ACHN renal = system: ACHN renal
MOLT-4 leukemia = system: MOLT-4 leukemia
PC-3 prostate = system: PC-3 prostate
SF-295 CNS = system: SF-295 CNS
OVCAR-8 ovarian = system: OVCAR-8 ovarian
NCI-H460 lung = system: NCI-H460 lung
SF-539 CNS = system: SF-539 CNS
CAKI-1 renal = system: CAKI-1 renal
MCF7 breast = system: MCF7 breast
NCI-H226 lung = system: NCI-H226 lung
EKVX NSCLC = system: EKVX NSCLC
SK-OV-3 ovarian = system: SK-OV-3 ovarian
CCRF-CEM leukemia = system: CCRF-CEM leukemia
HCC-2998 colon = system: HCC-2998 colon
NCI-H23 lung = system: NCI-H23 lung
SN12C renal = system: SN12C renal
UACC-62 melanoma = system: UACC-62 melanoma
OVCAR-5 ovarian = system: OVCAR-5 ovarian

## Cc1c2cnccc2c(C)c2c1c1cc(O)ccc1n2C(C)C
HOP-62 NSCLC
  GI50: 1600 nM
  TGI: 4740 nM
SNB-19 CNS
  GI50: 1760 nM
  TGI: 10900 nM
MALME-3M melanoma
  GI50: 756 nM
  TGI: 2580 nM
MDA-MB-231 breast
  GI50: 1510 nM
  TGI: 7580 nM
A498 renal
  GI50: 2000 nM
  TGI: 13300 nM
HCT-116 colon
  GI50: 964 nM
  TGI: 6560 nM
HS 578T breast
  GI50: 1230 nM
  TGI: 4550 nM
TK-10 renal
  GI50: 3310 nM
  TGI: 8550 nM
OVCAR-3 ovarian
  GI50: 2040 nM
  TGI: 6860 nM
T-47D breast
  GI50: 1980 nM
  TGI: 6270 nM
RXF 393 renal
  GI50: 935 nM
  TGI: 2390 nM
SK-MEL-28 melanoma
  GI50: 1230 nM
  TGI: 2960 nM
HT29 colon
  GI50: 3110 nM
  TGI: 11500 nM
RPMI-8226 leukemia
  GI50: 1050 nM
  TGI: 3190 nM
SW-620 colon
  GI50: 408 nM
  TGI: 3270 nM
KM12 colon
  GI50: 570 nM
  TGI: 9870 nM
UO-31 renal
  GI50: 785 nM
  TGI: 5210 nM
M14 melanoma
  GI50: 678 nM
  TGI: 2340 nM
OVCAR-4 ovarian
  GI50: 1310 nM
  TGI: 7380 nM
MDA-MB-435
  GI50: 1040 nM
  TGI: 2290 nM
SNB-75 CNS
  GI50: 1200 nM
  TGI: 2460 nM
HL-60(TB) leukemia
  GI50: 420 nM
  TGI: 3130 nM
SK-MEL-2 melanoma
  GI50: 797 nM
  TGI: 2580 nM
BT-549 breast
  GI50: 1110 nM
  TGI: 2730 nM
DU-145 prostate
  GI50: 688 nM
  TGI: 7060 nM
SK-MEL-5 melanoma
  GI50: 1350 nM
  TGI: 3000 nM
HCT-15 colon
  GI50: 440 nM
  TGI: 4200 nM
NCI/ADR-RES ovarian
  GI50: 1140 nM
  TGI: 4230 nM
LOX IMVI melanoma
  GI50: 470 nM
  TGI: 1900 nM
K-562 leukemia
  GI50: 1020 nM
  TGI: 5600 nM
U251 CNS
  GI50: 1770 nM
  TGI: 6510 nM
HOP-92 NSCLC
  GI50: 2110 nM
  TGI: 7280 nM
SF-268 CNS
  GI50: 1180 nM
  TGI: 3620 nM
A549 NSCLC
  GI50: 744 nM
  TGI: 8170 nM
NCI-H522 lung
  GI50: 475 nM
  TGI: 2540 nM
786-0 renal
  GI50: 1700 nM
  TGI: 4530 nM
COLO 205 colon
  GI50: 2360 nM
  TGI: 6020 nM
ACHN renal
  GI50: 285 nM
  TGI: 1770 nM
MOLT-4 leukemia
  GI50: 289 nM
  TGI: 1260 nM
PC-3 prostate
  GI50: 1120 nM
  TGI: 3710 nM
SF-295 CNS
  GI50: 1700 nM
  TGI: 5350 nM
OVCAR-8 ovarian
  GI50: 972 nM
  TGI: 6180 nM
NCI-H460 lung
  GI50: 361 nM
  TGI: 1560 nM
SF-539 CNS
  GI50: 1320 nM
  TGI: 2900 nM
CAKI-1 renal
  GI50: 388 nM
  TGI: 5240 nM
MCF7 breast
  GI50: 1370 nM
  TGI: 4820 nM
NCI-H226 lung
  GI50: 2820 nM
  TGI: 11600 nM
EKVX NSCLC
  GI50: 846 nM
  TGI: 2410 nM
SK-OV-3 ovarian
  GI50: 709 nM
  TGI: 5550 nM
CCRF-CEM leukemia
  GI50: 1330 nM
  TGI: 5810 nM
HCC-2998 colon
  GI50: 1550 nM
  TGI: 4940 nM
NCI-H23 lung
  GI50: 721 nM
  TGI: 3830 nM
SN12C renal
  GI50: 647 nM
  TGI: 6060 nM
UACC-62 melanoma
  GI50: 1370 nM
  TGI: 4280 nM
OVCAR-5 ovarian
  GI50: 2420 nM
  TGI: 9460 nM
